{"source": "patent US20250223610A1", "about": "“MEASUREMENT OF SOMATIC L1 RETROTRANSPOSITION ACTIVITY” (SZEGEDI BIOLÓGIAI KUTATÓKÖZPONT, priority 2022, published 2025)", "molecules": {"B1": {"name": "amiR-mP53/1: Tp53 silencing artificial microRNA (amiR) element, SEQ ID NO: 19 (nucleic acid)", "DNA": "GGGCCCGTGTACCGGTGTGTGAGCTCTGTTTGAATGAGGCTTCAGTACTTTACAGAATCGTTGCCTGCACATCTTGGAAACACTTGCTGGGATTACTTCTTCAGGTTAACCCAACAGAAGGCTCGAGAAGGTATATTGCTGTTGACAGTGAGCGATCACTGCATGGACGATCTGTTTAGTGAAGCCACAGATGTAAACAGATCGTCCATGCAGTGAGTGCCTACTGCCTCGGACTTCAAGGGGCTACTTTAGGAGCAATTATCTTGTTTACTAAAACTGAATACCTTGCTATCTCTTTGATACATTTTTACAAAGCTGAATTAAAATGGTATAAATTAAATCACTTTGTCGACGTGTTCTAGAGTGTGCCGGC", "modifications": "misc_feature 27..121 Endogenous miR30a 5' flanking; misc_feature 155..176 Target with N1 A mismatch; stem_loop 177..195 loop; misc_feature 196..217 guide; misc_feature 238..347 Endogenous miR30a 3' flanking; amiR-mP53/1 element"}}, "key": {"[1]": {"system": "somatic L1 retrotransposition", "test": "SYBR Green-based intronless EGFP qPCR on liver DNA of ORFeus reporter bearing Fah-/- mice", "format": "in vivo", "conditions": "1 mg/kg IP twice weekly from NTBC withdrawal; liver samples after three months; preliminary results", "text": "Multiple qPCR-based methods have already been published offering the possibility to measure the amount of intron-free EGFP copies produced during retrotransposition of the ORFeus reporter (Mita, Sun et al. 2020). Based on these published methods, we have also started to quantify our results.\nNTBC was withdrawn after hydrodynamic plasmid delivery.\nTo measure the retrotransposition events of the synthetic L1 element we carried out genomic exon-exon junction qPCR analysis of the spliced, intronless EGFP using two different qPCR detection chemistry. SYBR Green based qPCR was done using PerfeCTa SYBR Green SuperMix (Quantabio). Cycling conditions were as follows: 95° C. for 7 min, 4 cycles of 10 s at 95° C., 15 s at 66° C. (−1° C./cycle, no acquisition), followed by 40 cycles of 5 s at 95° C., 10 s at 62° C. The following primers were used: […]\nProbe-based qPCR detection was done as previously described (Mita, Sun et al. 2020) using PerfeCTa qPCR ToughMix (Quantabio). All qPCR reactions were performed on a Rotor-Gene Q instrument (Qiagen) in triplicates using 87 ng of gDNA. Analysis was carried out with the Rotor-Gene Q software (Qiagen). Relative changes in expression levels were calculated using the ΔCT method (Livak and Schmittgen 2001) SYBR Green and probe-based qPCR results were normalized to measurements of the Olfr16 and Rpl21 internal control genes, respectively."}, "[2]": {"system": "somatic L1 retrotransposition", "test": "FACS measurement of EGFP-positive hepatocytes isolated from ORFeus carrying Fah-/- mice", "conditions": "1 million hepatocytes per sample; Decitabine 1 mg/kg IP twice weekly", "procedure": "For evaluating alternative detection methods we investigated the outcome of Decitabine (5-aza-2′-deoxycytidine) treatments in the assay of the invention. 10 Fah^−/− animals were injected hydrodynamically and after NTBC withdrawal, 5 were started on Decitabine and 5 animals were kept without drug treatment as a control group. Under our current drug treatment regime administration of drugs starts at the same time as NTBC withdrawal.\nTo test this approach, 2-2 animals from Decitabine-treated and control experimental groups were subjected to liver perfusion and hepatocyte isolation.\nMice were housed under 12 h light-dark cycle at 22° C. with free access to water and regular rodent chow. […] Fah^−/− mice were treated with 8 mg/l Orfadin® (Nitisinone, NTBC) (Swedish Orphan Biovitrum) in drinking water. NTBC was withdrawn after hydrodynamic plasmid delivery. […] Dosing, scheduling, and the route of administration of all drugs and chemical compounds were determined according to the manufacturer's instructions and literature data. […] The body weight of the mice was monitored continuously. […]\nProcurement of liver for hepatocyte isolation was done under sodium pentobarbital (Nembutal) (Sigma Aldrich) anaesthesia. […] Cell numbers were determined using a Burker chamber. Cell viability was determined by trypan blue exclusion test. […]"}, "[3]": {"system": "somatic L1 retrotransposition", "test": "Stereomicroscopic macrovisualization of EGFP positive hepatocyte colonies in liver of Fah-/- mice carrying the ORFeus reporter", "format": "in vivo", "conditions": "5 mg/kg IP twice weekly from NTBC withdrawal; livers examined after 3 months", "text": "In these proof of concept studies the present inventors have used an L1-ORF2-free ORFeus and amiR-free construct variant (shown in FIG. 3B). First, the ORFeus-expressing transposon and the hyperPB transposase helper plasmid were co-delivered hydrodynamically into the liver of Fah^−/− mice, then the curative drug nitisinone (NTBC) was withdrawn (FIG. 2A). In those hepatocytes where hydrodynamic transfection is successful, the hyperactive transposase helper enzyme is likely to catalyse the “cut and paste” transposition reaction presumably leading to an integration into the host chromosomes (Skipper, Andersen et al. 2013).\nFICZ was administered by intraperitoneal (IP) injection at a dose of 5 mg/kg body weight twice weekly. […]\nThe results of EGFP macrovisualization were summarized in FIG. 5 for the control, FICZ-treated and MeIQx-treated experimental groups. The number of EGFP-positive hepatocyte cell colonies detectable by stereomicroscopy in the liver of each animal was counted and per-animal values were plotted on a box diagram. […]\nPictures of whole mouse livers were taken with an Olympus SZX12 fluorescence stereozoom microscope equipped with a 100 W mercury lamp and filter sets for selective excitation and emission of GFP and mCherry."}, "Tp53 gene": {"system": "Tp53 gene", "test": "Tp53 silencing by amiR element", "parameters": "species or system mouse", "text": "For example, silencing of the Tp53 gene can attenuate the P53 L1 sensor (Ardeljan, Steranka et al. 2020) (FIG. 1B), without completely inactivating it. Such an effect is predicted to increase the tolerance of somatic cells to ORFeus reporter expression. We have developed three efficient Tp53 silencing amiR elements. Of these, amiR-mP53/1 capable to produce approximately 20% remaining Tp53 gene expression is currently being tested in our laboratory. Presumably, it will be able to increase the sensitivity of the somatic L1 activity measuring system. However, its application is not essential. Our results so far, at least in our in vivo system, are in conflict with the finding of the authors describing the role of the P53 sensor stating that wild-type retinal pigment epithelium-1 (RPE) cells undergo a TP53-dependent growth arrest in response to L1 (Ardeljan, Steranka et al. 2020). In contrast, ORFeus expressing mouse liver cells are able to regenerate the liver in the absence of p53 silencing (FIG. 3B)."}}, "note": "Entries after “also recorded” stand apart in the source; their conditions may differ."}
{"molecule": "Nc1ncn([C@H]2C[C@H](O)[C@@H](CO)O2)c(=O)n1", "note": "[Decitabine, 5-aza-2′-deoxycytidine]", "values": [{"measurement": "induction of somatic L1 retrotransposition (amount of intron-free EGFP copies, normalized to Olfr16)", "setting": "[1]", "result": "weak inducer"}, {"measurement": "number of EGFP-expressing cells by FACS compared to controls", "setting": "[2]", "result": "higher number; also recorded: confirmed the results obtained with qPCR"}]}
{"molecule": "Cc1cnc2ccc3c(nc(N)n3C)c2n1", "note": "[MeIQx, 2-Amino-3,8-Dimethylimidazo[4,5.f]Quinoxaline]", "values": [{"measurement": "number of EGFP fluorescent (ORFeus retrotransposition bearing) hepatocyte colonies in liver as compared to non-drug-treated controls", "setting": "[3]", "result": "higher number"}]}
{"molecule": "O=Cc1c2c(cc3c1=Nc1ccccc1-3)=Nc1ccccc1-2", "note": "[FICZ, 6-Formylindolo[3,2-b]carbazole]", "values": [{"measurement": "number of EGFP fluorescent (ORFeus retrotransposition bearing) hepatocyte colonies in liver as compared to non-drug-treated controls", "setting": "[3]", "result": "more EGFP fluorescent colonies; also recorded: higher number"}]}
{"molecule": "B1", "values": [{"measurement": "remaining Tp53 gene expression", "setting": "Tp53 gene", "result": "approximately 20%"}]}
